Test results taken from patent US20260285850A1, “SUBSTITUTED OXAZOLIDINONES AND IMIDAZOLINONES AS HERBICIDES” (FMC CORPORATION, priority 2023, published 2026).

Columns and labels:
Format in all cases: in vivo
[1] = test system: barnyardgrass (Echinochloa crus-galli); experiment: Test A preemergence soil spray, visual injury rating 0-100; details: 10 days
Outline: (§1)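 Plants in a loam and sand soil blend were treated with each test chemical, in a non-phytotoxic solvent system including surfactant, either sprayed on seeded soil before emergence or applied after emergence at the one- to two-leaf stage. Ten days later in the greenhouse, plants were compared with untreated controls and visually rated from 0 (no effect) to 100 (complete control).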

[2] = test system: blackgrass (Alopecurus myosuroides); experiment: as above; details: 10 days
Outline: as §1

corn (Zea mays) [3] = experiment: as above; details: 10 days
Outline: as §1

[4] = test system: green foxtail (Setaria viridis); experiment: as above; details: 10 days
Outline: as §1

kochia (Bassia scoparia) [5] = experiment: as above; details: 10 days
Outline: as §1

[6] = test system: oat, wild (wild oat, Avena fatua); experiment: as above; details: 10 days
Outline: as §1

[7] = test system: palmer (palmer amaranth, palmer pigweed, Amaranthus palmeri); experiment: as above; details: 10 days
Outline: as §1

[8] = test system: ragweed (common ragweed, Ambrosia artemisiifolia); experiment: as above; details: 10 days
Outline: as §1

[9] = test system: ryegrass, Italian (italian ryegrass, Lolium multiflorum); experiment: as above; details: 10 days
Outline: as §1

soybean (Glycine max) [10] = experiment: as above; details: 10 days
Outline: as §1

[11] = test system: wheat (Triticum aestivum); experiment: as above; details: 10 days
Outline: as §1

[12] = test system: barnyardgrass (Echinochloa crus-galli); experiment: Test A postemergence application, visual injury rating 0-100
Outline: as §1

[13] = test system: blackgrass (Alopecurus myosuroides); experiment: as above
Outline: as §1

corn (Zea mays) [14] = experiment: as above
Outline: as §1

[15] = test system: galium (catchweed bedstraw, Galium aparine); experiment: as above; details: Postemergence, 16 g ai/ha, greenhouse 10 days; 0 no effect, 100 complete control
Outline: as §1

[16] = test system: green foxtail (Setaria viridis); experiment: as above
Outline: as §1

[17] = test system: horseweed (Erigeron canadensis); experiment: as above
Outline: as §1

kochia (Bassia scoparia) [18] = experiment: as above
Outline: as §1

[19] = test system: oat, wild (wild oat, Avena fatua); experiment: as above
Outline: as §1

[20] = test system: palmer (palmer amaranth, palmer pigweed, Amaranthus palmeri); experiment: as above
Outline: as §1

[21] = test system: ragweed (common ragweed, Ambrosia artemisiifolia); experiment: as above
Outline: as §1

[22] = test system: ryegrass, Italian (italian ryegrass, Lolium multiflorum); experiment: as above
Outline: as §1

soybean (Glycine max) [23] = experiment: as above
Outline: as §1

[24] = test system: wheat (Triticum aestivum); experiment: as above
Outline: as §1

[25] = test system: barnyardgrass (Echinochloa crusgalli); experiment: Test B flooded paddy test, visual plant response rating 0-100; details: 250 g ai/ha, Flood, applied to paddy water, evaluated after 13 days
Outline: (§2)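 Plants were grown to the 2-leaf stage, then pots were flooded to 3 cm above the soil and test compounds were applied directly into the paddy water. Water depth was held there throughout; after 13 days in a greenhouse, injury was scored visually against untreated controls.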

[26] = test system: ducksalad (Heteranthera limosa); experiment: as above; details: 250 g ai/ha, Flood, applied to paddy water, evaluated after 13 days
Outline: as §2

rice (Oryza sativa) = experiment: as above; details: 250 g ai/ha, Flood, applied to paddy water, evaluated after 13 days
Outline: as §2

[27] = test system: sedge, umbrella (small-flower umbrella sedge, Cyperus difformis); experiment: as above; details: 250 g ai/ha, Flood, applied to paddy water, evaluated after 13 days
Outline: as §2

[28] = 62 g ai/ha, 0 = no effect, 100 = complete control
[29] = 62 g ai/ha, postemergence, 10 days, 0 = no effect, 100 = complete control
[30] = Postemergence, 16 g ai/ha, greenhouse 10 days, 0 no effect, 100 complete control

Compound: CC1(C(=O)NC2CC=C(C(=O)OCC(F)F)C2)CN(c2cc(F)cc(F)c2)C(=O)O1 (stereo not drawn) [Compound 151]
- Barnyardgrass plant response rating ([1]; 16 g ai/ha, 0 to 100 scale): 0
- Barnyardgrass plant response rating (0-100) [1, 28]: 0
- Blackgrass plant response rating ([2]; 16 g ai/ha, 0 to 100 scale): 0
- Blackgrass plant response rating (0-100) [2, 28]: 0
- Corn plant response rating (corn (Zea mays) [3]; 16 g ai/ha, 0 to 100 scale): 0
- Corn plant response rating (0-100) (corn (Zea mays) [3]; [28]): 0
- Foxtail, Green plant response rating ([4]; 16 g ai/ha, 0 to 100 scale): 0
- Foxtail, Green plant response rating (0-100) [4, 28]: 0
- Kochia plant response rating (kochia (Bassia scoparia) [5]; 16 g ai/ha, 0 to 100 scale): 0
- Kochia plant response rating (0-100) (kochia (Bassia scoparia) [5]; [28]): 0
- Oat, Wild plant response rating ([6]; 16 g ai/ha, 0 to 100 scale): 0
- Oat, Wild plant response rating (0-100) [6, 28]: 0
- Pigweed, Palmer plant response rating ([7]; 16 g ai/ha, 0 to 100 scale): 0
- Pigweed, Palmer plant response rating (0-100) [7, 28]: 0
- Ragweed plant response rating ([8]; 16 g ai/ha, 0 to 100 scale): 0
- Ragweed plant response rating (0-100) [8, 28]: 0
- Ryegrass, Italian plant response rating ([9]; 16 g ai/ha, 0 to 100 scale): 0
- Ryegrass, Italian plant response rating (0-100) [9, 28]: 0
- Soybean plant response rating (soybean (Glycine max) [10]; 16 g ai/ha, 0 to 100 scale): 0
- Soybean plant response rating (0-100) (soybean (Glycine max) [10]; [28]): 0
- Wheat plant response rating ([11]; 16 g ai/ha, 0 to 100 scale): 0
- Wheat plant response rating (0-100) [11, 28]: 0
- Barnyardgrass plant response rating (0-100) [12, 29]: 20
- Barnyardgrass plant response rating (0 to 100 scale) [12, 30]: 0
- Blackgrass plant response rating (0-100) [13, 29]: 0
- Blackgrass plant response rating (0 to 100 scale) [13, 30]: 0
- Corn plant response rating (0-100) (corn (Zea mays) [14]; [29]): 0
- Corn plant response rating (0 to 100 scale) (corn (Zea mays) [14]; [30]): 0
- Galium plant response rating (0 to 100 scale) [15]: 0
- Foxtail, Green plant response rating (0-100) [16, 29]: 0
- Foxtail, Green plant response rating (0 to 100 scale) [16, 30]: 0
- Horseweed plant response rating (0-100) [17, 29]: 0
- Horseweed plant response rating (0 to 100 scale) [17, 30]: 0
- Kochia plant response rating (0-100) (kochia (Bassia scoparia) [18]; [29]): 0
- Kochia plant response rating (0 to 100 scale) (kochia (Bassia scoparia) [18]; [30]): 0
- Oat, Wild plant response rating (0-100) [19, 29]: 0
- Oat, Wild plant response rating (0 to 100 scale) [19, 30]: 0
- Pigweed, Palmer plant response rating (0-100) [20, 29]: 0
- Pigweed, Palmer plant response rating (0 to 100 scale) [20, 30]: 0
- Ragweed plant response rating (0-100) [21, 29]: 0
- Ragweed plant response rating (0 to 100 scale) [21, 30]: 0
- Ryegrass, Italian plant response rating (0-100) [22, 29]: 0
- Ryegrass, Italian plant response rating (0 to 100 scale) [22, 30]: 0
- Soybean plant response rating (0-100) (soybean (Glycine max) [23]; [29]): 0
- Soybean plant response rating (0 to 100 scale) (soybean (Glycine max) [23]; [30]): 0
- Wheat plant response rating (0-100) [24, 29]: 0
- Wheat plant response rating (0 to 100 scale) [24, 30]: 0
- Plant response rating, Barnyardgrass (0 to 100 scale, 0 is no effect and 100 is complete control) [25]: 0
- Plant response rating, Ducksalad (0 to 100 scale, 0 is no effect and 100 is complete control) [26]: 0
- Plant response rating, Rice (0 to 100 scale, 0 is no effect and 100 is complete control) (rice (Oryza sativa)): 0
- Plant response rating, Sedge, Umbrella (0 to 100 scale, 0 is no effect and 100 is complete control) [27]: 0
